“Also recorded” adds a separate entry of the source. Read-outs that look alike come from different tables or passages of the source.
Assays:
IFN‐γ induction [1] = assay: IFN-γ induction in TALL-104 cells; assay type: cell-based, human; conditions: 4 h, IL-12 or IL-12 and IL-18
Protocol: (§1) NK-92 cells (DSMZ) were cultured in α-MEM containing 12.5% fetal bovine serum (FBS), 12.5% horse serum, 2 mM L-glutamine, penicillin/streptomycin and 50 U/ml IL -2. TALL-104 cells (ATCC, LGC Standards) were cultured in RPMI 1640 medium containing 20% FBS, 2 mM L - glutamine, penicillin/streptomy cin and 100 U/ml IL-2. […]
(§2) NK-92 cells were treated with test compound or DMSO in 1.5 ml medium in 12 -well plates (Corning) for 2 h (final DMSO concentration 0.2%), in the presence of 50 ng/ml IL -12 (PeproTech). For IFN-γ experiments (Figure 6 and S6), NK -92 cells or TALL-104 cells were treated for 4 h in the presence of 50 ng/ml IL-12 and 10 ng/ml IL-18 (Bio-Techne). […]
(§3) The components of cell lysates from treated cells, or heat-treated lysates from CETSA, were separated by SDS-PAGE (10%), transferred to nitrocellulose membrane (Bio-Rad) and detected using monoclonal rabbit primary antibodies (Cell Signaling), α-rabbit-HRP secondary antibody (Dako) and Western Lightning Plus chemiluminescence reagent (Perkin Elmer).
(§4) Bands were visualized using an ImageQuant system (GE Healthcare) and quantitated using ImageJ software (NIH). […]
(§5) The sitting drop was composed of 0.1 µl protein solution and 0.1 µl reservoir solution. Plates were stored at 19°C in a protein […]
(§6) In the first set of experiments, w e tried to crystallize STAT4 as a SUMO -STAT4 fusion protein […]
(§7) was cleaved off as described above. […]

STAT5a/5b = STAT5a/5b phosphorylation in K562 cells (Western blot); assay type: cell-based, human; conditions: Tyr694 (STAT5a)/Tyr699 (STAT5b), read-out: IC 50, STAT5a/5b‐phosphorylation
Protocol: (§8) Cells were […]
harvested by washing twice with ice -cold TBS, followed by resuspension in TBS supplemented with protease/phosphatase inhibitors (100 ng/ml aprotinin, 1 mM Na3VO4, 10 mM NaF, 1 mM […]
as §3, §4, §5, §6
(§9) was cleaved off as described above.
Screening for crystallization conditions for tag-free STAT4 was performed both in the absence or presence of 1 equivalent of 6m or 6h. Since the chosen protein concentration of 3.6 mg/ml appeared to be too low, screening was repeated with a higher concentration of 6.4 mg/ml STAT4 for all conditions (corresponding to 100 µM 6m). Both the SUMO-STAT4 and the tag-free STAT4 preferentially precipitated under conditions containing polyethylene glycol. […]

STAT4 [2] = target: T1, STAT4 (Homo sapiens, UniProt Q14765); assay: STAT4 phosphorylation in TALL-104 cells stimulated by IL-12 or IL-12 and IL-18; assay type: cell-based; parameters: utilizing cellular lysates from the STAT4‐expressing natural killer cell line NK‐92; endogenous in cells; host or cells: NK-92 (DSMZ); conditions: 4 h
T1 sequence (Q14765 1-748): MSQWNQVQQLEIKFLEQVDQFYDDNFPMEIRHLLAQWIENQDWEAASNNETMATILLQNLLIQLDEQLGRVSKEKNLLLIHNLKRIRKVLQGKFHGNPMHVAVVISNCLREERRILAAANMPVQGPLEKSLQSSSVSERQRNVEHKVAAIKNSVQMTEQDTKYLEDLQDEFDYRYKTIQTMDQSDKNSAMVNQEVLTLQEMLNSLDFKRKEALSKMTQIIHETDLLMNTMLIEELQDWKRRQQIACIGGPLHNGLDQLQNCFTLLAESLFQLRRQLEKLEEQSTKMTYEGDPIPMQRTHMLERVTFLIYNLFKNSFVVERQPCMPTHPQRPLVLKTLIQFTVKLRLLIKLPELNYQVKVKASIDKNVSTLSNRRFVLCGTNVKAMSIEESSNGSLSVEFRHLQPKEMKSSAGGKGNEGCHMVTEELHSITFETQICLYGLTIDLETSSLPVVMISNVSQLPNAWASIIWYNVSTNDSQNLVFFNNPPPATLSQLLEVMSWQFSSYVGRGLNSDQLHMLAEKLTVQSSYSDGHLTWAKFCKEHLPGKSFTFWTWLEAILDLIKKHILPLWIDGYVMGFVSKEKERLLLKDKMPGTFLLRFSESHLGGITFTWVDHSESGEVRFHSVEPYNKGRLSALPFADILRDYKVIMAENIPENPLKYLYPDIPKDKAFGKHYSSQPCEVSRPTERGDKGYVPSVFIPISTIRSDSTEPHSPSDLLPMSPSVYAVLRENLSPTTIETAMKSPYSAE
Protocol: as §1, §2, §3, §4, §5, §6, §7

IFN‐γ induction [3] = assay: IL-12/IL-18-mediated IFN-γ induction in NK-92 cells; assay type: cell-based, human; conditions: 4 h, 50 ng/ml IL-12 and 10 ng/ml IL-18
Protocol: (§10) NK-92 cells (DSMZ) were cultured in α-MEM containing 12.5% fetal bovine serum (FBS), 12.5% horse serum, 2 mM L-glutamine, penicillin/streptomycin and 50 U/ml IL -2. […]
as §2, §3, §4, §5, §6, §9
Screening for crystallization conditions for tag-free STAT4 was performed both in the absence or presence of 1 equivalent of 6m or 6h. […]

STAT3 = STAT3 (Homo sapiens, UniProt P40763); assay: STAT3 Tyr705 phosphorylation in HCC-827 cells (Western blot); assay type: cell-based; parameters: endogenous in cells; conditions: serum-free conditions, read-out: IC 50, phosphorylation of STAT3 (Tyr705)
Protocol: HCC-827 cells (DSMZ) and K562 cells
(DSMZ) were cultured in RPMI 1640 medium containing 10% FBS, 2 mM L -glutamine and penicillin/streptomycin. HCC -827 cells were subcultured by briefly rinsing with sterile PBS followed by incubation with 0.25% Trypsin-EDTA solution before inactivation by addition of cell culture medium (all reagents apart from cell lines were from Gibco at Thermo Fisher Scientific). […]
as §8
harvested by washing twice with ice -cold TBS, followed by resuspension in TBS supplemented with protease/phosphatase inhibitors (100 ng/ml aprotinin, 1 mM Na3VO4, 10 mM NaF, 1 mM PMSF). The adherent HCC-827 cells were mechanically separated from the culture surface using plastic cell scrapers (A. Hartenstein). […]
as §3, §4, §5

STAT4 [4] = target: T1, STAT4; assay: IL-12-induced STAT4 Tyr693 phosphorylation in NK-92 cells (Western blot); assay type: cell-based; parameters: utilizing cellular lysates from the STAT4‐expressing natural killer cell line NK‐92; endogenous in cells; host or cells: NK-92 (DSMZ)
Protocol: as §10, §3, §4, §5, §6, §9
Screening for crystallization conditions for tag-free STAT4 was performed both in the absence or presence of 1 equivalent of 6m or 6h. Since the chosen protein concentration of 3.6 mg/ml appeared to be too low, screening was repeated with a higher concentration of 6.4 mg/ml STAT4 for all conditions (corresponding to 100 µM 6m). Both the SUMO-STAT4 and the tag-free STAT4 preferentially precipitated under conditions containing polyethylene glycol. In one set of experiments, we also screened for conditions in the presence of the high-affinity peptide GY(PO3H2)LPQNID adapted from the IL-12 receptor. However, none of the conditions resulted in the growth of STAT4 crystals (Table S4).

STAT3, sequence (P40763 whole entry): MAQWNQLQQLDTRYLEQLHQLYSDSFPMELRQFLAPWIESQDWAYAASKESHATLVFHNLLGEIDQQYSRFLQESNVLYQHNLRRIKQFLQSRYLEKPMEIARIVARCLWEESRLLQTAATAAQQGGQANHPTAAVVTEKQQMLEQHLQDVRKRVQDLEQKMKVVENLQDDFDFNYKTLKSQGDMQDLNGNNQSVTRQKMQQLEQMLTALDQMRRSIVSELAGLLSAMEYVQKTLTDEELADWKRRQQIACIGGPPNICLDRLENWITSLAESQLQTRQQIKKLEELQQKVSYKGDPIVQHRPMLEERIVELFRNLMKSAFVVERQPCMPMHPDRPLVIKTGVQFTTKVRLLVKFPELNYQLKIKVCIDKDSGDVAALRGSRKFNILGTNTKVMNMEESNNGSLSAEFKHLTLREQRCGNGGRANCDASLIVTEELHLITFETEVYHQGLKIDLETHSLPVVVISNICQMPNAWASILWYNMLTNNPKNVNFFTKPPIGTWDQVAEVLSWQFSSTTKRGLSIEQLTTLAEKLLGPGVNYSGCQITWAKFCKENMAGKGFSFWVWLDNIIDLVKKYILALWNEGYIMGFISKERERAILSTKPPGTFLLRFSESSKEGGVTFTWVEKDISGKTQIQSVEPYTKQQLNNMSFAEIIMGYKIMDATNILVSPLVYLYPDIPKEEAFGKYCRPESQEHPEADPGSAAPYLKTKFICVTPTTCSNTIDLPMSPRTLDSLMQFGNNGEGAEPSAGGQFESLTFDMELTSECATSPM

Cc1cc(-c2ccc(C(F)(F)P(=O)(OCOC(=O)C(C)(C)C)OCOC(=O)C(C)(C)C)c(F)c2)cs1 [Compound 9]
IFN‐γ induction (IFN‐γ induction [1]): inhibited
IC50 (STAT5a/5b): > 25 µM
STAT4 phosphorylation stimulated by IL‐12 alone or co‐stimulated by IL‐12 and IL‐18 (STAT4 [2]): inhibited
IL12/IL‐18‐mediated IFN‐γ induction (IFN‐γ induction [3]): strongly reduced; also recorded: inhibits
IC50 (STAT3): 19 µM
inhibition of IL‐12‐induced STAT4 Tyr693 phosphorylation (STAT4 [4]; 2 h, presence of 25% serum): moderately inhibits
IC50 (STAT4 [4]; 2 h, presence of 25% serum, read-out: IC 50, IL‐12‐induced STAT4 phosphorylation): 77 µM
IL‐12/IL‐18‐mediated STAT4 phosphorylation (STAT4 [4]; 4 h, 50 ng/ml IL-12 and 10 ng/ml IL-18): strongly reduced; also recorded: inhibits
IC50 (STAT4 [4]; IL-12, absence of serum, read-out: IC 50, STAT4 Tyr693 phosphorylation): 3.3 µM
